Assay [1] has as its target T1, human RORγt LBD (Homo sapiens, UniProt P51449).
T1 construct: expressed in transfected cells; host or cells: HEK293T
T1 sequence (P51449 258-518): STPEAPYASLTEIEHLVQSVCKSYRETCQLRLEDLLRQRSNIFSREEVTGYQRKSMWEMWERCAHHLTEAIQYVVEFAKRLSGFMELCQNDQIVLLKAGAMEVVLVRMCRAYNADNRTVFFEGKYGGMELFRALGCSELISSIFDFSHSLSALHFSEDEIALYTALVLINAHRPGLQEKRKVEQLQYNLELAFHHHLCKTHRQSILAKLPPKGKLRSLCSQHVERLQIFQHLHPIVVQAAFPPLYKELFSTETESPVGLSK
The assay is described as follows: RORγt (LBD) Reporter Assay (GAL4 luciferase, HEK293T cells). As to conditions: for inhibition at 6 µM: HEK-293T; for IC50: compounds for 24 hours. Type of assay: cell-based. The method, then:
Compounds were assessed for RORgt functional modulation using either the RORgt ligand binding domain (LBD) reporter assay, or the RORgt full-length (FL) reporter assay.
A reporter assay was used to test functional activity of RORγt modulatory compounds on transcriptional activation driven by the RORγt LBD. Cells used in the assay were co-transfected with two constructs. The first construct, pBIND-RORγt LBD, contained the wild type human RORγt LBD fused to the DNA binding domain of the GAL4 protein. The second construct, pGL4.31 (Promega Cat no. C935A), contained multiple GAL4 responsive DNA elements upstream of firefly luciferase. […] The mutant construct was called pBIND-RORγt-AF2.
The pBIND vector contains the GAL4 DNA Binding Domain (GAL4 DBD) and the renilla luciferase gene under control of the SV40 promoter. Renilla luciferase expression serves as a control for transfection efficiency and cell viability.
The reporter assay was performed by transiently transfecting HEK293T cells with 5 µg of pBIND-RORγt LBD or pBIND-RORγt LBD-AF2 and 5 µg pGL4.31 (Promega Cat no. C935A) using Fugene 6 (Invitrogen Cat no. E2691) at a 1:6 ratio of DNA: Fugene 6 in a T-75 flask in which cells were at least 80% confluent. Twenty four hours after bulk transfection, cells were plated into 96-well plates at 50,000 cells/well in phenol-red free DMEM containing 5% Lipid Reduced FCS and Pen/Strep. Six hours after plating, cells were treated with compounds for 24 hours. Media was removed and cells were lysed with 50 µL 1x Glo Lysis Buffer (Promega). Dual Glo Luciferase Reagent (50 µL/well) was then added and firefly luciferase luminescence was read on an Envision after a ten minute incubation. Finally, Stop and Glo reagent (50 µL/well) was added and renilla luciferase luminescence was read on an Envision after a ten minute incubation. To calculate the effect of compounds on RORγt activity, the ratio of firefly to renilla luciferase was determined and plotted against compound concentration. Agonist compounds increase RORγt-driven luciferase expression, and antagonist or inverse agonist compounds decrease luciferase expression.
(A reporter such as luciferase makes a cellular process visible.)

Assay [2] concerns the target T2, human RORγt ligand binding domain (RORγt LBD) (Homo sapiens, UniProt P51449).
T2 construct: His-tag (N); TurboTEV protease cleavage site (ENLYFQG) (N); made in house; host or cells: E. coli (pHIS1, modified pET vector)
T2 sequence (P51449 258-518): T1 sequence (P51449 258-518)
The assay is described as follows: ThermoFluor® Assay (RORγt thermal shift binding). As to conditions: 0.065 mg/mL RORγt, 60 µM 1,8-ANS, pH 7.0; estimated from concentration response curves. As to the method:
This approach is applicable to a wide variety of systems, and rigorous in theoretical interpretation through quantitation of equilibrium binding constants (KD).
The shift in the melting point described as a ΔTm is proportional to the concentration and affinity of the ligand. The compound potency may be compared as a rank order of either ATm values at a single compound concentration or in terms of KD values, estimated from concentration response curves.
ThermoFluor® experiments were carried out using instruments owned by Janssen Research and Discovery, L.L.C. through its acquisition of 3-Dimensional Pharmaceuticals, Inc. 1,8-ANS (Invitrogen) was used as a fluorescent dye. Protein and compound solutions are dispensed into black 384-well polypropylene PCR microplates (Abgene) and overlayed with silicone oil (1 µL, Fluka, type DC 200) to prevent evaporation.
Bar-coded assay plates are robotically loaded onto a thermostatically controlled PCR-type thermal block and then heated at a typical ramp-rate of 1 °C/minute for all experiments. Fluorescence was measured by continuous illumination with UV light (Hamamatsu LC6) supplied via fiber optic and filtered through a band-pass filter (380-400 nm; >6 OD cutoff). Fluorescence emission of the entire 384-well plate was detected by measuring light intensity using a CCD camera (Sensys, Roper Scientific) filtered to detect 500 ± 25 nm, resulting in simultaneous and independent readings of all 384 wells. Images were collected at each temperature, and the sum of the pixel intensity in a given area of the assay plate was recorded versus temperature. Reference wells contained RORyt without compounds, and the assay conditions were as follows: • 0.065 mg/mL RORγt • 60 µM 1,8-ANS • 100 mM Hepes, pH 7.0 • 10 mM NaCl • 2.5 mM GSH • 0.002% Tween-20
Project compounds were arranged in a pre-dosed mother plate (Greiner Bio-one) wherein compounds are serially diluted in 100% DMSO by 1:2 from a high concentration of 10 mM over 12 columns within a series (column 12 is a reference well containing DMSO, no compound). The compounds were robotically dispensed directly into assay plates (1x = 46 nL) using a Hummingbird capillary liquid handling instrument (Digilab). Following compound dispense, protein and dye in buffer was added to achieve the final assay volume of 3 µL, followed by 1 µL of silicone oil.

Counter-ions that a name gives are not always drawn. Bounds are passed on as bounds.

As to `COc1nc2ccc(C(O)c3cnc(C)n3C)cc2c(Cl)c1Cc1ccc(F)cc1` (single isomer, unassigned) [Example 8c], in assay [1] (6 µM compound, 6 µM), the “RORγt (LBD) Reporter Assay, % inhibition @ 6 µM” value is listed as 37%.
By Kd is commonly meant a measure of binding affinity in units of concentration. What is called inhibition is the relative decrease from the control value, in per cent. The IC50 is the concentration that inhibits the measured activity by half. On to `COc1nc2ccc(C(O)c3cncn3C)cc2c(Cl)c1Cc1ccc(C(F)(F)F)cc1` (single isomer, unassigned) [Example 18b, (4-Chloro-2-methoxy-3-(4-(trifluoromethyl)benzyl)quinolin-6-yl)(1-methyl-1H-imidazol-5-yl)methanol], for which the Kd in assay [2] is 290 nM. Also, the inhibition at 6 µM in assay [1] (6 µM compound) stood at 98%. This compound showed an IC50 in assay [1] of 510 nM.
Taken in the same sequence, the figures for `Cc1ncc(C(O)c2ccc3nc(N4CCC4)c(Cc4ccc(-n5cccn5)cc4)c(Cl)c3c2)n1C` (single isomer, unassigned) [Example 21b, {2-Azetidin-1-yl-4-chloro-3-[4-(1H-pyrazol-1-yl)benzyl]quinolin-6-yl}(1,2-dimethyl-1H-imidazol-5-yl)methanol] were 260 nM, 88% and 690 nM.
For `Cc1noc(C)c1C(O)c1ccc2nc(Cl)c(-c3ccccc3)c(Cl)c2c1` (centres unmarked) [Example 1, (2,4-Dichloro-3-phenylquinolin-6-yl)(3,5-dimethylisoxazol-4-yl)methanol] the same measures were 550 nM, 48% and over 6000 nM.
Taken in the same sequence, the figures for `Cn1cncc1C(O)c1ccc2nc(Cl)c(-c3ccccc3)c(Cl)c2c1` (centres unmarked) [Example 2, (2,4-Dichloro-3-phenylquinolin-6-yl)(1-methyl-1H-imidazol-5-yl)methanol] were 1600 nM, 12% and over 6000 nM.
Consider `Cn1cncc1C(O)c1ccc2nc(Cl)c(-c3ccccc3Cl)c(Cl)c2c1` (centres unmarked) [Example 3, (2,4-Dichloro-3-(2-chlorophenyl)quinolin-6-yl)(1-methyl-1H-imidazol-5-yl) methanol], for which the Kd in assay [2] was 450 nM.
For `Cc1cc(C(O)c2cncn2C)cc2c(Cl)c(-c3ccccc3)c(Cl)nc12` (centres unmarked) [Example 4, (2,4-Dichloro-8-methyl-3-phenylquinolin-6-yl)(1-methyl-1H-imidazol-5-yl)methanol•TFA], the dissociation constant (Kd) in assay [2] is 4900 nM. Also, the inhibition at 6 µM in assay [1] (6 µM compound) is -1%. Besides, in assay [1], the IC50 was over 6000 nM.
In the case of `COc1nc2ccc(C(O)C3CCN(C(C)=O)CC3)cc2c(Cl)c1Cc1ccc(C(F)(F)F)cc1` (centres unmarked) [Example 6, (1-Acetylpiperidin4-yl){4-chloro-2-methoxy-3-[4-(trifluoromethyl)benzyl]quinolin-6-yl}methanol], the Kd in assay [2] is 220 nM. The inhibition at 6 µM in assay [1] (6 µM compound) is 95%. Moreover, the midpoint of inhibition in assay [1], the IC50, lay at 790 nM.
With `Cn1cncc1C(O)c1ccc2nc(Cl)c(Cc3ccc(-n4cccn4)cc3)c(Cl)c2c1` (centres unmarked) [Example 7, (3-(4-(1H-Pyrazol-1-y1)benzyl)-2,4-dichloroquinolin-6-yl)(1-methyl-1H-imidazol-5-yl)methanol], in assay [2], the Kd was 480 nM. For the same compound, the inhibition at 6 µM in assay [1] (6 µM compound) came out at 93%. The same compound registered an IC50 in assay [1] of about 2000 nM.
On to `COc1nc2ccc(C(O)c3cnc(C)n3C)cc2c(Cl)c1Cc1ccc(F)cc1` (centres unmarked) [Example 8a], for which, in assay [2], the Kd is 180 nM. The inhibition at 6 µM in assay [1] (6 µM compound) stood at 40%.
With `COc1nc2c(C)cc(C(O)c3cncn3C)cc2c(Cl)c1Cc1ccc(S(C)(=O)=O)cc1` (centres unmarked) [Example 10], the dissociation constant (Kd) in assay [2] was 3000 nM. In addition, in assay [1] (6 µM compound), the inhibition at 6 µM amounted to 59%. In assay [1], the IC50 was about 6000 nM.
Taken in the same sequence, the figures for `COc1nc2c(C)cc(C(O)c3cncn3C)cc2c(Cl)c1Cc1cccc(C(F)(F)F)c1` (centres unmarked) [Example 11, (4-Chloro-2-methoxy-8-methyl-3-(3-(trifluoromethyl)benzyl)quinolin-6-yl)(1-methyl-1H-imidazol-5-yl)methanol] were 150 nM, 24% and over 6000 nM.
Regarding `COc1nc2ccc(C(O)c3ccc(C)nc3C)cc2c(Cl)c1Cc1ccc(C(F)(F)F)cc1` (centres unmarked) [Example 14a, (4-Chloro-2-methoxy-3-(4-(trifluoromethyl)benzyl)quinolin-6-yl)(2,6-dimethylpyridin-3-yl)methanol], the Kd in assay [2] was 71 nM.

Values taken from patent publication EP3057949B1, “SECONDARY ALCOHOL QUINOLINYL MODULATORS OF ROR GAMMA T” (Janssen Pharmaceutica NV, priority 2013, dated 2015).
